Experimental findings from patent US5608047A, “Cyclic ADP-ribose and analogs” (Wisconsin Alumni Research Foundation, priority 1995, dated 1997) are described below.

The test system of the assay is rat brain microsomes. Briefly: Ca2+ release measurement with fluo-3 in rat brain microsomes. In kind it is biochemical. The following applies: for EC50: extramicrosomal Ca2+ by fluo-3, read-out: ED50 of Ca^2+ release. As to the method: Ca^2+ release measurements as follows: Rat brain microsomes were prepared on the day of the experiment. Loading of the microsomes with Ca^2+ took approximately 30 minutes at 24° C. and was used at a protein concentration of 0.5 mg/ml. The free Ca^2+ used for Ca^2+ loading was 0.5 to 2 uM and was present in the loading solution as a contaminant. Ca^2+ uptake and release was followed by measuring extramicrosomal Ca^2+ using fluo-3 (Cal-Biochem) (1 uM). Fluorescence intensity of fluo-3 was measured at excitation and emission wavelength of 490 and 535 nm respectively. Fluorimetry was performed on 500 ul aliquots of microsomes using a Perkin Elmer MF-3. Additions were made in volumes of 1-5 ul and all chemicals were added in incubation medium containing 10 uM EGTA. Ca^2+ traces were calibrated by adding Ca^2+ standard solution.
Ca^2+ release measurements were done as outlined in Example 1.

Consider heparin, for which the “effect on Ca^2+ release induced by IP3” value (release induced by IP3) is “blocked Ca^2+ release induced by IP3”.

Turning to `N=c1c2ncn3c2ncn1[C@@H]1O[C@H](COP(=O)(O)OP(=O)(O)OC[C@H]2O[C@@H]3[C@H](O)[C@@H]2O)[C@@H](O)[C@H]1O` [cADPR, cyclic ADP-ribose], the EC50 came out at 100 nM.

For `NC(=O)c1ccc[n+]([C@@H]2O[C@H](COP(=O)([O-])OP(=O)(O)OC[C@H]3O[C@@H](n4cnc5c(N)ncnc54)[C@H](O)[C@@H]3O)[C@@H](O)[C@H]2O)c1` [β-NAD], the “Ca^2+ release caused by the substance” value is on record as “caused no Ca^2+ release”.

Regarding ryanodine, the “effect on Ca^2+ release induced by cADPR” value (release induced by cADPR) is “inhibited release of Ca^2+ by cADPR”.

For `Nc1ncnc2c1ncn2[C@@H]1O[C@H](COP(=O)(O)OP(=O)(O)OC[C@H]2OC(O)[C@H](O)[C@@H]2O)[C@@H](O)[C@H]1O` (stereo partly shown) [ADPR, ADP-ribose], the “Ca^2+ release caused by the substance” value is “caused no Ca^2+ release”.

For `N=c1c2ncn3c2ncn1[C@@H]1O[C@H](COP(=O)(O)OP(=O)(O)OP(=O)(O)OC[C@H]2O[C@@H]3[C@H](O)[C@@H]2O)[C@@H](O)[C@H]1O` [cATPR, cycle ATP-ribose], the EC50 was found to be 5 nM. Besides, the “potency relative to cADPR (times more potent)” value (ratio of ED50 values) was “approximately 20 times”.
